Assays:
[1] = tested on: glutamic acid at neuromuscular junctions of crayfish (opener muscles of the first walking legs); test: Blocking effects against glutamic acid at neuromuscular junctions of crayfish (L-glutamic acid-induced depolarization); format: cell-based; conditions: 5 min; suppression rate of depolarization by L-glutamic acid (10^-4 M); 5-minute pretreatment with test compound 2×10^-4 M
Source text: The opener muscles of the first walking legs of crayfish were used as experimental materials. The neuromuscular sample was held in a bath in which a physiological solution [composition (mM): NaCl (195), CaCl2 (18), KCl (5.4), tris-maleate buffer (pH 7.5; 10), glucose (11)] for use with the crayfish was perfused at room temperature and at a constant flow rate. A glass micro-electrode filled with a 3M-KCl solution was inserted in a central part of the muscle fiber to intracellularly record changes in the potential of the muscular cell membrane.
The blocking effect of each test compound against glutamic acid was evaluated in terms of the suppression rate to depolarization which was induced by bath-applying L-glutamic acid (10^-4 M) in a 5-minute pretreatment with a solution of the test compound (2×10^-4 M).

[2] = tested on: anemic decerebrate rigidity (Wistar male rats); test: Effects on anemic decerebrate rigidity (EMG of M. triceps brachii); format: in vivo; conditions: Rattus norvegicus, iv, 10 min; 3 mg/kg through the femoral vein; 10 minutes after administration; read-out: Suppression rate (rigidity, EMG pulse area)
Protocol: An anemic decerebrate rigidity sample was prepared principally in accordance with the procedure of Fukuda et al. [Japan. […] Wistar male rats (body weight: 270 to 350 g) were held on their backs and incised at their cervices under etherization. After the trachea and common carotid arteries were exposed, the trachea was cannulated and the bilateral common carotid arteries and esophagus were then double-ligated and cut. Thereafter, its occipital bone was exposed through which a circular hole was bored to double-ligate the centrally extending basilar artery. As each rat started coming out of anesthetization, its front limbs became rigid. Measurement was conducted by recording electromyographic (EMG) response from the muscle of the forelimb (M. triceps brachii) of the rat in the rigid state. The EMG pulses were converted to accumulated values every 10 seconds and recorded as a histogram on a recorder.
The effect of each test compound on the rigidity was evaluated in terms of the suppression rate. This rate was calculated first by determining the area of a decreased EMG pulse part on the histogram upon passage of 10 minutes after administration of a physiological saline solution of each test compound (3 mg/kg) through the femoral vein and then in accordance with the following equation.
A: EMG pulse area when no test compound was administered (control).

[3] = Acute toxicity, up-and-down method; conditions: mouse, in vivo; iv (caudal vein), ddN male mice
Protocol: Using ddN male mice, the acute toxicity level of each test compound was determined in accordance with an up-and-down method. Some of the test compounds used were dissolved in physiological saline and administered through the caudal vein.

| SMILES | inhibition at 200 µM [1] [%] | inhibition in vivo at 3 mg/kg [2] [%] | LD50 [3] [mg/kg] |
| --- | --- | --- | --- |
| CCCC[C@H](NCCCN1CCCCC1)[C@H](O)c1ccccc1.Cl.Cl (racemic) [Compound 3, (1RS,2SR)-1-phenyl-2-(3-piperidinopropylamino)hexan-1-ol dihydrochloride] | 99 | 17.5 | 19.2 |
| CCCCC[C@H](NCCCN1CCCCC1)[C@H](O)c1ccccc1.Cl.Cl (racemic) [Compound 5, (1RS,2SR)-1-phenyl-2-(3-piperidinopropylamino)heptan-1-ol dihydrochloride] | 100 | 18.5 | 22.1 |
| CC(C)CC[C@H](NCCCN1CCCCC1)[C@H](O)c1ccccc1.Cl.Cl (racemic) [Compound 21, (1RS,2SR)-5-methyl-1-phenyl-2-(3-piperidinopropylamino)hexan-1-ol dihydrochloride] | 100 | 65.9 | 13.6 |
| CC(C)CC[C@@H](NCCCN1CCCCC1)[C@H](O)c1ccccc1.Cl.Cl (racemic) [Compound 22, (1RS,2RS)-5-methyl-1-phenyl-2-(3-piperidinopropylamino)hexan-1-ol dihydrochloride] | 100 | 42.3 | 19 |
| CC(C)CC[C@H](NCCCN1CCCC1)[C@H](O)c1ccccc1.Cl.Cl (racemic) [Compound 35, (1RS,2SR)-5-methyl-1-phenyl-2-(3-pyrrolidinopropylamino)hexan-1-ol dihydrochloride] | 100 | 21.6 | 26.7 |
| CC(C)CC[C@H](NCCN1CCCCC1)[C@H](O)c1ccccc1.Cl.Cl (racemic) [Compound 41, (1RS,2SR)-5-methyl-1-phenyl-2-(2-piperidinoethylamino)hexan-1-ol dihydrochloride] | 94 | 23.5 | 29.5 |
| CC(C)CC[C@H](NCCN1CCCC1)[C@H](O)c1ccccc1.Cl.Cl (racemic) [Compound 43, (1RS,2SR)-5-methyl-1-phenyl-2-(2-pyrrolidinoethylamino)hexan-1-ol dihydrochloride] | 95 | 16.1 | 31.9 |
| CC(C)CC[C@H](NCCCN1CCCCCC1)[C@H](O)c1ccccc1.Cl.Cl (racemic) [Compound 45, (1RS,2SR)-5-methyl-2-[3-(perhydroazepin-1-yl)propylamino]-1-phenylhexan-1-ol dihydrochloride] | 100 | 90.5 | 12.8 |
| CC(C)C[C@H](NCCCN1CCCCC1)[C@H](O)c1ccccc1.Cl.Cl [Compound 17, (1R,2S)-4-methyl-1-phenyl-2-(3-piperidinopropylamino)pentan-1-ol dihydrochloride] | 100 | – | 15.4 |
| CC(C)C[C@H](NCCCN1CCCCC1)[C@@H](O)c1ccccc1.Cl.Cl [Compound 19, (1S,2S)-4-methyl-1-phenyl-2-(3-piperidinopropylamino)pentan-1-ol dihydrochloride] | 100 | – | 28.4 |

From patent US5250546A, “Amino-alcohol derivatives and processes for their preparation” (Nippon Chemiphar Co., Ltd., priority 1984, dated 1993)
